Data reported in patent EP4711372A1, “CRYSTAL FORM OF HETEROCYCLIC COMPOUND, SALT THEREOF, CRYSTAL FORM OF SALT THEREOF, AND USE” (Hubei Bio-Pharmaceutical Industrial Technological Institute …, priority 2023, dated 2024).

How the values were obtained:
[1] = system: mouse IPF treatment model; assay: Efficacy test on mouse IPF treatment model (Bleomycin-induced); type: in vivo, mice; settings: mean, oral gavage, 14 consecutive days from day 7
Experimental: (§1) Male mice were adaptively fed for 1 to 2 weeks and after reaching the standard weight (25 g), the IPF model (idiopathic pulmonary fibrosis model) was induced with a certain dose of Bleomycin. On the day of modeling, the animals were randomly divided into a model group and an administration group according to their weight, in which the administration groups were administered Nintedanib (60 mg/kg, qd), low-dose compound I-3B obtained in Example 1 (1 mg/kg, bid), and high-dose compound I-3B obtained in Example 1 (2.5 mg/kg, bid) by oral gavage for 14 consecutive days starting from day 7 while the vehicle control group was administered blank vehicle. During the administration period, the animals were weighed twice a week. At the end of the last day of administration, the animals were euthanized. The lungs were removed from the thyroid cartilage (without perfusion), slowly perfused with 10% formalin until both lungs were filled, and fixed in 10% formalin 5 to 10 times the volume of the tissues after the trachea was ligated. The left lung tissues were embedded in paraffin wax, sectioned, and stained with HE and Masson Trichrome. The sections were subjected to panoramic scanning using a Hamamatsu NanoZoomer Digital Pathology (S210) slide scanner for pathological analysis.

IBD in mice = assay: Efficacy on IBD in mice (DSS-induced); type: in vivo, C57BL/6 mice; settings: for CL (colon length) / CL/CW/BW / CW (colon weight) / DAI / body weight / inflammatory cell infiltration score (histopathological examination of colon tissues) / tissue injury score (histopathological examination of colon tissues): compared with G2 model group; for Colon length CL / Colon weight CW: day 0 to day 9, necropsy day 10
Experimental: The mice in G2 to G6 were given 2% DSS aqueous solution on day 0 to day 6, normal water on […], vehicle/positive/test substance on day 0 to day 9, and euthanized on day 10 for necropsy. Colon weight (CW) and colon length (CL) were measured and colon tissues […] were subjected to histopathological examination.

[2] = Pharmacokinetics in mice (oral gavage); type: in vivo; settings: mouse, plasma, male CD-1 mice, 10 mg/kg
Experimental: The pharmacokinetic properties of the compounds obtained in Example 1 in mice were determined with reference to the following experimental methods.
Three male CD-1 mice were administered by oral gavage at a dose of 10 mg/kg, and the vehicle was 5% DMSO + 10% Solutol + 85% Saline. The mice were fasted overnight, and the time points of blood collection were before administration and at 15 minutes, 30 minutes, 1 hour, 2 hours, 4 hours, 8 hours, and 24 hours after administration. Blood samples were centrifuged at 6,800 g for 6 minutes at 2 to 8°C, and plasma was collected and stored at - 80°C. 10 µL of plasma at each time point was taken and added with 200 µL of methanol containing 100 ng/mL internal standard. The mixture was vortexed, mixed well, and centrifuged at 18,000 g for 7 minutes at 2 to 8°C. 200 µL of the mixture was transferred to a 96-well injection plate for LC-MS/MS quantitative analysis. The main pharmacokinetic parameters were analyzed using WinNonlin 7.0 software with non-compartmental model.

15-PGDH = target: T1, 15-PGDH (Homo sapiens, UniProt P15428); assay: 15-PGDH enzyme inhibition assay (fluorescence, NAD+/PGE2); type: biochemical; settings: 15-PGDH inhibition
T1 construct: purchased R&D Systems 5660-DH-010
T1 sequence (P15428 1-266): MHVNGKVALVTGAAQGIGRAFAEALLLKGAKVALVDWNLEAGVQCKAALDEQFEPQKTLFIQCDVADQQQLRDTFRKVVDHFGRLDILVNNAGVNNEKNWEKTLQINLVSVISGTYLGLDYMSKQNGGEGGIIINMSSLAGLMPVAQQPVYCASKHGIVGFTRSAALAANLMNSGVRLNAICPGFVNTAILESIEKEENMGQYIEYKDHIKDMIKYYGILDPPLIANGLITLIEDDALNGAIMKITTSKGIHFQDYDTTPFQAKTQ
Experimental: 15-PGDH (R&D Systems, Cat. No. 5660-DH-010) was prepared to twice the final concentration, i.e., 30 nM, using Assay Buffer (50 mM Tris-HCl, pH 7.5, 0.01% Tween 20 by volume). 15-PGDH was then added to a 384-well white plate (Cisbio Bioassays, Cat. No. 66PL384025) at 8 µL/well. Negative control wells (with Assay Buffer only and without enzyme) were set. The compound was then prepared to 4 times the final concentration using Assay Buffer, i.e., diluted 3-fold to 10 concentrations starting from 4000 nM. The compound was added to the above white plate at 4 µL/well, mixed well, centrifuged at 1000 rpm for 1 minute, and incubated at 25°C for 10 minutes. Both positive control wells (with 15-PGDH only) and negative control wells (without 15-PGDH) were set. A mixture of NAD^+ (Select, Cat. No. S2518) and PGE2 (R&D Systems, Cat. No.:2296110) was then prepared using Assay Buffer. NAD^+ and PGE2 were prepared to four times their final concentrations, i.e., 2 mM and 0.12 mM, respectively, using Assay Buffer. The mixture was then added to the above white plate at 4 µL/well, mixed well, centrifuged at 1000 rpm for 1 minute, and incubated at 25°C for 30 minutes for the reaction. The fluorescence was measured at an excitation wavelength of 340 nm and an emission wavelength of 485 nm using a TECAN SPARK 20M microplate reader. The IC50 value was calculated using four-parameter fitting with GraphPad Prism 8.0.

[3] = system: mouse IPF prevention model; assay: Efficacy test on mouse IPF prevention model (Bleomycin-induced); type: in vivo, mice; settings: mean; compound I-3B 2.5 mg/kg bid, oral gavage, 21 consecutive days
Experimental: as §1, with “once a day (qd))” for “qd), low-dose compound I-3B obtained in Example 1 (1 mg/kg, bid),”, “and” for “and high-dose”, “twice a day (bid))” for “bid)”, “21” for “14”, “days” for “days starting from day 7”, “every 3 days.” for “twice a week.”

Cn1nc2cc(N3C[C@H]4C[C@H]4c4cc(C(=O)N5CCC(F)(F)CC5)cnc43)ccn2c1=O (single isomer, unassigned) [compound I-3B]
Total pulmonary fibrosis score ([1]; high-dose 2.5 mg/kg bid): 2.6 | Total pulmonary fibrosis score ([1]; low-dose 1 mg/kg bid): 2.74 | IBD symptoms and tissue injury in mice (IBD in mice; 2.5 mg/kg and 5 mg/kg, efficacy better than that of the positive control): significantly improve | CL (colon length) (IBD in mice; G4, 2.5 mg/kg-bid): significant increase | CL/CW/BW (IBD in mice; G4, 2.5 mg/kg-bid): significant decrease | CW (colon weight) (IBD in mice; G4, 2.5 mg/kg-bid): significant decrease | DAI (IBD in mice; G4, 2.5 mg/kg-bid): significant decrease | body weight (IBD in mice; G4, 2.5 mg/kg-bid): increase | inflammatory cell infiltration score (histopathological examination of colon tissues) (IBD in mice; G4, 2.5 mg/kg-bid): significant decrease | tissue injury score (histopathological examination of colon tissues) (IBD in mice; G4, 2.5 mg/kg-bid): significant decrease | CL (colon length) (IBD in mice; G5, 5 mg/kg-bid): significant increase | CL/CW/BW (IBD in mice; G5, 5 mg/kg-bid): significant decrease | CW (colon weight) (IBD in mice; G5, 5 mg/kg-bid): significant decrease | DAI (IBD in mice; G5, 5 mg/kg-bid): significant decrease | body weight (IBD in mice; G5, 5 mg/kg-bid): significant increase | inflammatory cell infiltration score (histopathological examination of colon tissues) (IBD in mice; G5, 5 mg/kg-bid): significant decrease | tissue injury score (histopathological examination of colon tissues) (IBD in mice; G5, 5 mg/kg-bid): significant decrease | Colon length CL (IBD in mice; high-dose group (5 mg/kg)): 6.50 cm | Colon weight CW (IBD in mice; high-dose group (5 mg/kg)): 0.16 g | Colon length CL (IBD in mice; low-dose group (2.5 mg/kg)): 6.67 cm | Colon weight CW (IBD in mice; low-dose group (2.5 mg/kg)): 0.17 g | AUC(0-t) [2]: 33200 ng·h/mL | Cmax [2]: 4480 ng/mL | IC50 (15-PGDH): 3.58 nM | Total pulmonary fibrosis score [3]: 3.34
